How the values were obtained:
[1] = Free radical trapping, DCF oxidation, ferrous iron system; assay type: biochemical; conditions: 100 μM test compound, 100 μM FeSO4, 50 μM DCF in MEM, 37° C., 2 hrs
Procedure: (§1) Dichlorofluorescein (DCF) is a compound that fluoresces when oxidized by reactive oxygen species (ROS), such as hydroxyl, peroxyl, or alkoxyl free radicals. Test compounds were evaluated for their ability to scavenge radicals by determining their capacity to prevent the DCF oxidation in a radical generating environment. Two radical generating systems were used: (i) ferrous iron and (ii) tert-butyl hydroperoxide. When ferrous iron is placed in normoxic solution, it autooxidizes to produce ROS in the form of hydroxyl radicals, superoxide anion free radicals, and hydrogen peroxide. Similarly, when tert-butyl hydroperoxide is placed in non-chelated media, trace metals catalyze its oxidation to yield alkoxy, peroxyl, and alkyl free radicals.
(§2) In this assay, either 100 μM FeSO4 or 25 μM tert-butyl hydroperoxide were mixed with 50 μM DCF and 100 μM of the test compound in MEM and the mixture was incubated at 37° C. for 2 hrs. The fluorescence wavelengths measured were 485 nm for excitation and 530 nm for emission. In these tests, N-isopropyl-α-(2-sulfofuran-5-yl)nitrone sodium salt (prepared in Example 1 above) reduced fluorescence by 20% in the Fe^+2 assay and by 13% in the tert-butyl hydroperoxide assay. In comparison, a known free radical trap, N-tert-butyl-α-phenylnitrone (PBN) reduced fluorescence by 48% in the Fe^+2 assay and by 9% in the tert-butyl hydroperoxide assay.

female Lewis rats = assay: MBP-induced experimental allergic encephalomyelitis (EAE), behavioral score; assay type: in vivo, rat; conditions: 100 mg/kg po once a day from days 4 to 18
Procedure: Experimental allergic encephalomyelitis (EAE) induced by injection of myelin basic protein (MBP) or MBP peptide fragments is reported to be a useful model for MS. See, for example, D. E. McFarlin et al., “Recurrent Experimental Allergic Encephalomyelitis in the Lewis Rat,” The Journal of Immunology, 113(2): 712-715 (1974).
Acclimated female Lewis rats, (Harlan; 200-250 g) were used in this experiment since this strain of rat is genetically highly susceptible to EAE. In the experiment, 100 mg/kg of N-isopropyl-α-(2-sulfofuran-5-yl)nitrone sodium salt (prepared in Example 1 above) or a vehicle alone (control) was administered po once a day from days 4 to 18. On day 1, the rats received an injection of 100 μg of MBP peptide, from guinea pig brain, plus 500 μg of H37RA Mycobacterium in 0.10 ml complete Freund's adjuvant divided equally between the two hind foot-pads.
The rats were evaluated on a 0-6 scale every day after day 7 until day 18 (effects usually begin day 10 and peak day 15). See E. Heber-Katz, “The Ups and Downs of EAE,” International Reviews Immunology, 9: 277-285 (1992). […] Results are expressed as a behavioral score ranging from 0 to 6.

Male Sprague-Dawley rats = assay: Locomotor impairment due to Aβ(25-35), apomorphine-induced circling; assay type: in vivo, rat; conditions: one hour before and three hours post Aβ injection, apomorphine 0.5 mg/kg s.c. one week after
Procedure: Male Sprague-Dawley rats (250-400 g) were given an ipsilateral injection of 20 μg of Aβ(25-35) into their substantia nigra. Prior to the injection, the rats were fasted overnight and then each received an oral treatment of N-isopropyl-α-(2-sulfofuran-5-yl)nitrone sodium salt (prepared in Example 1 above)(10-100 mg/kg) dissolved in aqueous 1% methyl cellulose or the vehicle alone, one hour before and three hours post the Aβ-peptide stereotaxic injection. One week after treatment, the rats were dosed s.c. with 0.5 mg/kg apomorphine (dissolved in 0.1% vitamin C in isotonic saline) and the circling reflex was monitored using a Rotorat computerized behavioral monitoring apparatus for the time period between 15 and 30 minutes of being placed in the arena. Impairment of the animals due to Aβ-peptide was determined by measuring the number of rotations over the 15 minute period. A higher number of rotations per period indicates more physical impairment.

[2] = test system: rat permanent middle cerebral artery occlusion (MCAO) model; assay: Rat permanent middle cerebral artery occlusion (MCAO) stroke model; assay type: in vivo
Procedure: A rat permanent middle cerebral artery occlusion (MCAO) model was used to determine stroke treatment efficacy. MCAO is a representative model of acute CNS disorders. See, for example, M. D. Ginsberg et al., “Rodent Models of Cerebral Ischemia” (1989) Stroke, 20:1627-1642. In this stroke model, the middle cerebral artery was permanently occluded via cauterization to produce a focal stroke. N-isopropyl-α-(2-sulfofuran-5-yl)nitrone, sodium salt (prepared in Example 1 above) was then administered as a 10 mg/kg i.v. bolus dose three hours post MCAO through a catheter surgically implanted in the jugular vein. Two days post MCAO, the rats were sacrificed and the extent of brain damage assessed using tetrazolium staining (TTC staining) followed by computer image analysis to quantitate infarct volumes, i.e., the regions of dead tissue. The mean infarct volume for rats treated with the test compound was 24.7 mm^3 whereas the mean infarct volume for rats not treated with the test compound was 36.0 mm^3. […] Thus, N-isopropyl-α-(2-sulfofuran-5-yl)nitrone, sodium salt reduced the mean infarct volume of a stroke by 32% when administered three hours post stroke compared to controls.

[3] = Free radical trapping, DCF oxidation, tert-butyl hydroperoxide system; assay type: biochemical; conditions: 100 μM test compound, 25 μM tert-butyl hydroperoxide, 50 μM DCF in MEM, 37° C., 2 hrs
Procedure: as §1, §2

CC(C)[N+]([O-])=Cc1ccc(S(=O)(=O)O)o1 [Example 1, N-Isopropyl-α-(2-sulfofuran-5-yl)nitrone]
reduced fluorescence in the Fe^+2 assay [1]: 20% | effect of MBP on behavioral score (0-6 scale) (female Lewis rats): completely counteracted the effect of MBP | Rotations Over 15 Minute Period (Male Sprague-Dawley rats; Aβ(25-35) + 10 mg/kg oral): 9 | Rotations Over 15 Minute Period (Male Sprague-Dawley rats; Aβ(25-35) + 100 mg/kg oral): 6 | mean infarct volume ([2]; 10 mg/kg i.v. bolus three hours post MCAO, two days post MCAO, TTC staining): 24.7 mm^3 | reduction of mean infarct volume compared to controls ([2]; 10 mg/kg i.v. bolus three hours post stroke): 32% | reduced fluorescence in the tert-butyl hydroperoxide assay [3]: 13%

Source: patent publication US6376540B1, “Furan nitrone compounds” (Centaur Pharmaceuticals, Inc., priority 1996, dated 2002)
